Patent US20260256870A1, “SKIN COMPOSITION” (Eaderm Co., Ltd., priority 2019, published 2026)

System: SDS-induced skin roughness
Test: Skin roughness induced by 10% SDS in hairless mice (Examples 16, 17)
Format: in vivo, hairless mice (HOS: HR-1)
Description: Using a skin irritation model induced by a 10% sodium lauryl sulfate (SDS) solution (a test that serves as a standard for chemical-induced skin damage), the present inventors administered a substance that promotes the competitive self-renewal ability of epidermal stem cells (apocynin) and evaluated the effect of the skin roughness-preventing or -ameliorating agent in improving skin roughness. After acclimation of hairless mice (HOS: HR-1) to the experimental environment, the mice were divided into the three groups below, so that the body weight values were nearly uniform. • SDS non-treated group (n=2) • SDS treatment+solvent application group (n=4) • SDS treatment+200 μM apocynin application group (n=4) On the back of hairless mice, a cotton ball soaked in 500 μL of 10% SDS solution (dissolved in 70% ethanol) was applied for 30 min on days 1, 2, 3, and 4. Apocynin was applied to the back every day from the day before the experiment until day 4. For each group of mice on the third day after the start of the experiment, TEWL was measured at specific sites on the back (two sites on the left side and right side symmetrically from the center of the spine) as described above. On the eighth day, the images were taken by PRIMOS-CR (Canfield Scientific, Inc., Integral Corporation), a high-resolution 3D image analysis system. […] Using a skin irritation model induced by 10% sodium lauryl sulfate (SDS) solution, the present inventors administered a substance that promotes the competitive self-renewal ability of epidermal stem cells (ebselen) and evaluated the effect of the skin roughness-preventing or -ameliorating agent in improving skin roughness. […] For each group of mice on the eighth day after the start of the experiment, TEWL was measured at specific sites on the back (two sites on the left side and right side symmetrically from the center of the spine) as described above. […]

[1] = eighth day, surface of the back, compared to the solvent-applied control group

## COc1cc(C(C)=O)ccc1O [Apocynin]
200 μM apocynin, third day, compared to the solvent-applied control group (FIG. 28)
  TEWL on the back: significantly lower
[1]
  Ra (arithmetic mean roughness): significantly reduced
  Rz (ten-point average roughness): significantly reduced
